The values that follow are results of earlier work, collected in patent US11582972B2, “Controlled-diffusion semiochemical composition” (MELCHIOR MATERIAL AND LIFE SCIENCE FRANCE, priority 2017, dated 2023).

Structures are written as SMILES.

For the data set, the system named is Metamasius hemipterus sericeus. The settings on record: for attractiveness: high doses: ethyl acetate >800 mg/d, ethyl propionate >300 mg/d, ethyl butyrate >100 mg/d.

In the case of `CCOC(C)=O` [ethyl acetate], the attractiveness entry was “as attractive as 250 g of sugarcane”. The “synergistic effect with pheromones” value (dose >650 mg/d, in the field) is on record as “synergistic effect with pheromones equivalent to 250 g of sugarcane”.
Consider `CCOC(=O)CC` [ethyl propionate], for which the attractiveness result is “as attractive as 250 g of sugarcane”.
Regarding `CCCC(=O)OCC` [ethyl butyrate], the attractiveness result is recorded as “as attractive as 250 g of sugarcane”.
